Results from patent publication US20220267380A1, “Glycopeptides Increasing Lipid Synthesis” (TFCHEM, priority 2019, published 2022).

Legend:
[1] = system: normal human dermal fibroblasts (NHDF); experiment: Identification of biological processes involved (DAVID / Gene Ontology functional annotation of modulated genes); conditions: 10 mg/ml, p-value≤0.05
Description: Gene Ontology database has been more specifically used for the data interpretation. DAVID functional annotation part was used to cluster modulated genes into significant biological processes. […] DAVID database uses the Gene Ontology consortium (http://www.geneontology.org) vocabularies (GO terms) to describe gene products in terms of their associated biological processes. Among them, only biological processes with p-value≤0.05 were taken into account.
The gene modulations of NHDF treated with compound 1 (10 mg/ml), compound 3 (10 mg/ml) and compound 4 (10 mg/ml) vs control were analysed to cluster modulated genes into significant biological processes (p-value≤0.05).

[2] = system: normal human dermal fibroblasts (NHDF); experiment: Signal transduction pathway analysis (Ingenuity Pathway Analysis, activation z-score); conditions: 10 mg/ml
Description: Signal transduction pathway analysis: the results were then processed with IPA (Ingenuity Pathway Analysis, Qiagen®) software to identify signal transduction pathways modulated by each treatment. This software takes into account the Fold Change values of each gene and, when there is enough information, the direction of modulation of the signal transduction pathways can be identified. The relevance of the effect of each treatment on a given pathway was quantified by z-score. The z-score predicts the directional change on that effect.
A more advanced bioinformatics analysis was performed using the Ingenuity Pathway Analysis software (IPA from Qiagen®). This analysis allows the identification of the impacted signaling pathways and predicts their modulation.

| SMILES | main biological processes involved [1] | result of the analysis of signaling pathways [2] | Activation z-score, synthesis of cholesterol ([2]; positive = stimulation) | Activation z-score, synthesis of lipid ([2]; positive = stimulation) | Activation z-score, Metabolism of cholesterol ([2]; positive = stimulation) |
| --- | --- | --- | --- | --- | --- |
| C[C@H](NC(=O)[C@H](C)NC(=O)[C@@H](N)CCCCNCC(F)(F)[C@]1(O)O[C@H](CO)[C@H](O)[C@H](O)[C@H]1O)C(=O)O [Compound 1] | the lipid metabolic process and the cholesterol biosynthetic process | predictive activation of the lipid synthesis and the cholesterol biosynthetic process at a transcriptional level | 2.169 | 2.668 |  |
| CC(=O)N(CCCC[C@H](N)C(=O)O)CC(F)(F)[C@]1(O)O[C@H](CO)[C@H](O)[C@H](O)[C@H]1O [Compound 4] | the lipid metabolic process and the cholesterol biosynthetic process but also the ceramide metabolic process | predictive activation of the fatty acid and lipid synthesis and a stimulation of the adipocytes differentiation |  |  |  |
| N[C@@H](CCCCNCC(F)(F)[C@]1(O)O[C@H](CO)[C@H](O)[C@H](O)[C@H]1O)C(=O)O [Compound 3] | the lipid metabolic process and the cholesterol biosynthetic process | predictive activation of the lipid synthesis and the cholesterol biosynthetic process at a transcriptional level | 0.399 | 1.002 | 1.083 |
